This assay concerns RAW264.7 mouse macrophages. The assay can be described thus: Suppression of IFNγ-induced NO production (nitric oxide production and cell viability assay). The format is cell-based. As to conditions: RAW264.7 cells, drug pre-treatment 2 hours, then recombinant mouse IFNγ 24 hours; Griess reagent; normalized to cell viability (WST-1). As to the method:
Assay results for the suppression of IFNγ-induced NO production are shown for several of the compounds of the present invention in Table 1 below. […] Details regarding this assay are provided in the Examples section below. Nitric Oxide Production and Cell Viability Assay. […] On the next day, cells were pre-treated with DMSO or drug (O-200 nM dose range) for 2 hours, and then treated with recombinant mouse IFNγ (R&D Systems) for 24 hours. Nitric Oxide concentration in media was determined using the Griess reagent system (Promega). Cell viability was determined using WST-1 reagent (Roche). IC50 values were determined based on the suppression of IFNγ induced Nitric Oxide production normalized to cell viability.
A general note: Nitrite, measured by Griess reagent, commonly stands in for NO production.
By IC50 is commonly meant the concentration needed to halve the response being measured. Turning to `CC[C@]12CCC(C)(C)C[C@H]1[C@H]1C(=O)C=C3[C@@]4(C)C=C(C#N)C(=O)C(C)(C)[C@@H]4CC[C@@]3(C)[C@]1(C)CC2` [TX63403], the IC50 is 8.6 nM. The figure for `CC1(C)CC[C@]2(CCO)CC[C@]3(C)[C@H](C(=O)C=C4[C@@]5(C)C=C(C#N)C(=O)C(C)(C)[C@@H]5CC[C@]43C)[C@@H]2C1` [TX63608] is 1.1 nM. The figure for `COCC[C@]12CCC(C)(C)C[C@H]1[C@H]1C(=O)C=C3[C@@]4(C)C=C(C#N)C(=O)C(C)(C)[C@@H]4CC[C@@]3(C)[C@]1(C)CC2` [TX63609] is 2.9 nM. The result for `CC(=O)OCC[C@]12CCC(C)(C)C[C@H]1[C@H]1C(=O)C=C3[C@@]4(C)C=C(C#N)C(=O)C(C)(C)[C@@H]4CC[C@@]3(C)[C@]1(C)CC2` [TX63610] reads 2.2 nM; that for `COC(=O)CC[C@]12CCC(C)(C)C[C@H]1[C@H]1C(=O)C=C3[C@@]4(C)C=C(C#N)C(=O)C(C)(C)[C@@H]4CC[C@@]3(C)[C@]1(C)CC2` [TX63742], 2 nM. On to `COC(=O)/C=C/[C@]12CCC(C)(C)C[C@H]1[C@H]1C(=O)C=C3[C@@]4(C)C=C(C#N)C(=O)C(C)(C)[C@@H]4CC[C@@]3(C)[C@]1(C)CC2` [TX63743], for which the IC50 came out at 3.2 nM. The result for `CC1(C)CC[C@]2(CCCO)CC[C@]3(C)[C@H](C(=O)C=C4[C@@]5(C)C=C(C#N)C(=O)C(C)(C)[C@@H]5CC[C@]43C)[C@@H]2C1` [TX63744] reads 1.1 nM; that for `CC1(C)CC[C@]2(CCC(=O)O)CC[C@]3(C)[C@H](C(=O)C=C4[C@@]5(C)C=C(C#N)C(=O)C(C)(C)[C@@H]5CC[C@]43C)[C@@H]2C1` [TX63762], 1.2 nM; that for `CC1(C)CC[C@]2(CCC(=O)N3CCOCC3)CC[C@]3(C)[C@H](C(=O)C=C4[C@@]5(C)C=C(C#N)C(=O)C(C)(C)[C@@H]5CC[C@]43C)[C@@H]2C1` [TX63763], 0.4 nM. The result for `CC1(C)CC[C@]2(CCC(=O)NCC(F)(F)F)CC[C@]3(C)[C@H](C(=O)C=C4[C@@]5(C)C=C(C#N)C(=O)C(C)(C)[C@@H]5CC[C@]43C)[C@@H]2C1` [TX63764] reads 0.7 nM; that for `CCNC(=O)CC[C@]12CCC(C)(C)C[C@H]1[C@H]1C(=O)C=C3[C@@]4(C)C=C(C#N)C(=O)C(C)(C)[C@@H]4CC[C@@]3(C)[C@]1(C)CC2` [TX63768], 0.3 nM; that for `CNC(=O)CC[C@]12CCC(C)(C)C[C@H]1[C@H]1C(=O)C=C3[C@@]4(C)C=C(C#N)C(=O)C(C)(C)[C@@H]4CC[C@@]3(C)[C@]1(C)CC2` [TX63770], 0.2 nM. The result for `CC1(C)CC[C@]2(COC(=O)n3ccnc3)CC[C@]3(C)[C@H](C(=O)C=C4[C@@]5(C)C=C(C#N)C(=O)C(C)(C)[C@@H]5CC[C@]43C)[C@@H]2C1` [TX63868] reads 0.7 nM; that for `CC1(C)CC[C@]2(COC(=O)N3CCOCC3)CC[C@]3(C)[C@H](C(=O)C=C4[C@@]5(C)C=C(C#N)C(=O)C(C)(C)[C@@H]5CC[C@]43C)[C@@H]2C1` [TX63926], 0.7 nM; that for `CC1(C)CC[C@]2(COC(=O)N3CCCC3)CC[C@]3(C)[C@H](C(=O)C=C4[C@@]5(C)C=C(C#N)C(=O)C(C)(C)[C@@H]5CC[C@]43C)[C@@H]2C1` [TX63927], 1.3 nM.

As to `CCNC(=O)OC[C@]12CCC(C)(C)C[C@H]1[C@H]1C(=O)C=C3[C@@]4(C)C=C(C#N)C(=O)C(C)(C)[C@@H]4CC[C@@]3(C)[C@]1(C)CC2` [TX63930], the IC50 is 0.9 nM. The result for `CC1(C)CC[C@]2(CCC(=O)N3CCCC3)CC[C@]3(C)[C@H](C(=O)C=C4[C@@]5(C)C=C(C#N)C(=O)C(C)(C)[C@@H]5CC[C@]43C)[C@@H]2C1` [TX63949] reads 0.6 nM; that for `CC1(C)CC[C@]2(CCC(=O)N3CCC3)CC[C@]3(C)[C@H](C(=O)C=C4[C@@]5(C)C=C(C#N)C(=O)C(C)(C)[C@@H]5CC[C@]43C)[C@@H]2C1` [TX63950], 0.4 nM.

The values are drawn from patent US10501489B2, “C17-alkanediyl and alkenediyl derivatives of oleanolic acid and methods of use thereof” (REATA PHARMACEUTICALS, INC., priority 2012, dated 2019).
